Here are results for 14 compounds from ChEMBL document CHEMBL1201862, “PubChem BioAssay data set” (2004).

The target of experiment [1] is DNA dC->dU-editing enzyme APOBEC-3A (Homo sapiens, UniProt P31941). The experiment can be described thus: APOBEC3A DNA deaminase inhibitors, dose response, biochemical (AID 504722). Type of experiment: functional.
In experiment [2] the target is DNA dC->dU-editing enzyme APOBEC-3G (Homo sapiens, UniProt Q9HC16). Briefly: Dose Response confirmation of small molecule APOBEC3G DNA Deaminase Inhibitors via a fluorescence-based single-stranded DNA deaminase assay. [Related pubchem assays (depositor defined):AID493012, AID493028]. It is filed as functional.
Experiment [3] concerns the target T1, Carboxy-terminal domain RNA polymerase II polypeptide A small phosphatase 1 (Homo sapiens, UniProt Q9GZU7).
T1 sequence (Q9GZU7 whole entry): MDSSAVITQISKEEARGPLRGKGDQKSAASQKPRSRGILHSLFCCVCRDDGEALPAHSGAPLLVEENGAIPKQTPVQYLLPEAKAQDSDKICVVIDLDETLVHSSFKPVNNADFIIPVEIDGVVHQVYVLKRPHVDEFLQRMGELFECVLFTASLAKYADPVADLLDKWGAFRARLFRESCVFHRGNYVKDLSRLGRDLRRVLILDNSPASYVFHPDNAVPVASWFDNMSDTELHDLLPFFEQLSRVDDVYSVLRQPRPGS
The experiment can be described thus: inhibitors of CTDSP1, concentration-response testing, biochemical assay, absorbance-based, actives from ultra-high-throughput screening (AID 540297). It is filed as functional.

The target in experiment [4] is T2, Probable nicotinate-nucleotide adenylyltransferase (Staphylococcus aureus (strain N315), UniProt P65502). It is filed as functional, Staphylococcus aureus subsp. aureus N315.
Experiment [5] addresses T2, Probable nicotinate-nucleotide adenylyltransferase. Type of experiment: functional, Staphylococcus aureus subsp. aureus N315. The following applies: read-out: IC50_Mean.
A further experiment deals with Large T antigen (Simian virus 40, UniProt P03070). Type of experiment: functional, Betapolyomavirus macacae.
The target of experiment [6] is Induced myeloid leukemia cell differentiation protein Mcl-1 (Homo sapiens, UniProt Q07820). It is filed as functional.
Experiment [7] in a line: cytotoxicity in HEK-293T cells, dose response, cytotoxicity control for BCR NF-kB inhibitor project, luminescence, B-cell screen hits (AID 489021).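 Note: HEK-293T cells carrying an NF-kB luciferase reporter; cells exposed to compound for about 14 hours before viability readout.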 Type of experiment: functional, cell-based.
Experiment [8] has as its target Voltage-dependent T-type calcium channel subunit alpha-1H (Homo sapiens, UniProt O95180). It is filed as functional.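 Note: channel activity triggered by adding a high calcium stimulation buffer.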
For experiment [9], the target named is T3, RNA-binding protein pos-1 (Caenorhabditis elegans, UniProt G5EF15).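 Note: purified POS-1 fused to maltose binding protein made in E. coli; potency of compounds blocking POS-1 binding to fluorescent RNA.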
T3 sequence (G5EF15 whole entry): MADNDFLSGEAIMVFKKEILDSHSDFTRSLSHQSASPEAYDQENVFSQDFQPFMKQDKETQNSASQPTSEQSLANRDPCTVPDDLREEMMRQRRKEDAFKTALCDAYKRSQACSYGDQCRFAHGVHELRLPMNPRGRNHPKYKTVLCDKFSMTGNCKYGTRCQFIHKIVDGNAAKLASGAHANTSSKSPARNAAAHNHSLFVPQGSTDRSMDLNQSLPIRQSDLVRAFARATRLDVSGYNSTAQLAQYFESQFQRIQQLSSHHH
Briefly: inhibitors of POS-1/mex-3 RNA binding, dose response, biochemical, fluorescence polarization (AID 1964). (In general: Polarisation of emitted light reports the rotation of a fluorescent probe.)

Experiment [10] deals with T4, Zinc finger protein mex-5 (Caenorhabditis elegans, UniProt Q9XUB2).
T4 sequence (Q9XUB2 whole entry): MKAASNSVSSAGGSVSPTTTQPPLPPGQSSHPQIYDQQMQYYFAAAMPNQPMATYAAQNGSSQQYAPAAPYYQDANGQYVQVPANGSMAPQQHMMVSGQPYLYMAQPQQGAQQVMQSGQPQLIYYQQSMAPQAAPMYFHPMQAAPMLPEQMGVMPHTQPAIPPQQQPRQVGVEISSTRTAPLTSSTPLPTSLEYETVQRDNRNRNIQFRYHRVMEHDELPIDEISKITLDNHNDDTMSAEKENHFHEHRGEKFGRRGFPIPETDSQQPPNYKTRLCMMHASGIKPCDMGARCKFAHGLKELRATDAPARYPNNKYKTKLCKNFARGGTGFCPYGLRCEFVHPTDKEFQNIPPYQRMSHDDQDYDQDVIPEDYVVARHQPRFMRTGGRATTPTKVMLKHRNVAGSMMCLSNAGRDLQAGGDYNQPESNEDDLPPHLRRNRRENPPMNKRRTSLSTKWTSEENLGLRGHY
Briefly: MEX-5/TCR-2 RNA interaction inhibitors, dose response, biochemical, C. elegans, fluorescence polarization (AID 1960).

Experiment [11] addresses G-protein coupled receptor 55 (Homo sapiens, UniProt Q9Y2T6). The experiment can be described thus: GPR55 antagonists blocking LPI-driven arrestin recruitment, primary screen, imaging, U2OS, beta-arrestin-GFP, LPI agonist (AID 2013).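 Note: antagonist potency measured as reduced agonist-driven arrestin aggregation.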 Type of experiment: functional.
Experiment [12] can be described thus: A cytotoxicity screen of small molecule inhibitors of the PhoP region in Salmonella typhi identified in the primary screen. [Related pubchem assays: 1850, 1864, 1985 ]. It is filed as functional.
Experiment [13] addresses Neurotensin receptor type 1 (Homo sapiens, UniProt P30989). Type of experiment: functional.
The next experiment has as its target Genome polyprotein (dengue virus type 2, UniProt P29990). Briefly: Dengue-2 NS5 methyltransferase inhibitors, primary screen, biochemical, confirmation dose response (AID 588689). It is filed as functional.
The next experiment concerns the target T5, Leucine aminopeptidase (Plasmodium falciparum 3D7, UniProt Q8IL11).
T5 sequence (Q8IL11 whole entry): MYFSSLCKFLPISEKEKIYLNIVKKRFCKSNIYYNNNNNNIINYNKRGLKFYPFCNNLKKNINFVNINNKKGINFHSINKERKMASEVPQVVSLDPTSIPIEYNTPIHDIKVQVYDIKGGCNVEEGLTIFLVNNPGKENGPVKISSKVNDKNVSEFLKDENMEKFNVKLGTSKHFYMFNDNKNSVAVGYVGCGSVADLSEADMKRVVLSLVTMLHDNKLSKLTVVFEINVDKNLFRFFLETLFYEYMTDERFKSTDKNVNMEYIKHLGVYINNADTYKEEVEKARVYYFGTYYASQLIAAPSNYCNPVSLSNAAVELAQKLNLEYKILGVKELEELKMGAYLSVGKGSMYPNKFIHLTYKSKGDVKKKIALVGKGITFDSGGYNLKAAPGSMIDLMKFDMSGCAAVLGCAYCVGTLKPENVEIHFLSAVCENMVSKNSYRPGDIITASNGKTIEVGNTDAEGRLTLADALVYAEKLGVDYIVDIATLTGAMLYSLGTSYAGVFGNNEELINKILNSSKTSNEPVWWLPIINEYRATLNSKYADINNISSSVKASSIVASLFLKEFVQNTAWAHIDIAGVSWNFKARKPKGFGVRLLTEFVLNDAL
The experiment can be described thus: P. falciparum M17LAP inhibitors, primary screen, biochemical, fluorogenic H-Leu-NHMec substrate, 1536-well (AID 1619). Type of experiment: functional.

Experiment [14] addresses T6, Fatty acid synthase (Homo sapiens, UniProt P49327). Briefly: FAS thioesterase domain inhibitors, dose response, biochemical, endpoint fluorescence intensity, uHTS hits (AID 624327).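 Note: fluorescence from hydrolysis of an O-methyl fluorescein acyl ester substrate by the enzyme.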 It is filed as functional.
In experiment [15] the target is T6, Fatty acid synthase. The experiment can be described thus: FAS thioesterase domain inhibitors, dose response, biochemical, kinetic fluorescence intensity (AID 624326).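 Note: rate of fluorescence rise from hydrolysis of a fluorogenic O-methyl fluorescein ester substrate.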 Type of experiment: functional.
The target of the next experiment is T7, Caspase-6 (Homo sapiens, UniProt P55212).
T7 sequence (P55212 whole entry): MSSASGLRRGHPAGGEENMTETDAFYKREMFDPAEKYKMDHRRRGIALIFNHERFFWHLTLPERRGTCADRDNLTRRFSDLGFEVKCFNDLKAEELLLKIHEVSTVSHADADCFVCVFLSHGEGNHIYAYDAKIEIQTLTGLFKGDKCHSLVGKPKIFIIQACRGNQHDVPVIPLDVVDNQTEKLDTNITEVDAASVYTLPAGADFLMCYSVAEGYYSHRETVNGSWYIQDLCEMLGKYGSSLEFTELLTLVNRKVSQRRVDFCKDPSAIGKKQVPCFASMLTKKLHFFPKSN
The experiment can be described thus: human caspase-6 inhibitors, dose response, biochemical, VEID-R110 fluorescence, cherry-pick (AID 720632).

Activity calls are given as the source filed them. Some results are limits rather than exact numbers.
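Throughout, for IC50 Mean: confirmatory dose-response retesting of NadD inhibitor hits first found in an ultra-high-throughput screen.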

Sequence of DNA dC->dU-editing enzyme APOBEC-3G (Q9HC16 whole entry, the tested form may be a part): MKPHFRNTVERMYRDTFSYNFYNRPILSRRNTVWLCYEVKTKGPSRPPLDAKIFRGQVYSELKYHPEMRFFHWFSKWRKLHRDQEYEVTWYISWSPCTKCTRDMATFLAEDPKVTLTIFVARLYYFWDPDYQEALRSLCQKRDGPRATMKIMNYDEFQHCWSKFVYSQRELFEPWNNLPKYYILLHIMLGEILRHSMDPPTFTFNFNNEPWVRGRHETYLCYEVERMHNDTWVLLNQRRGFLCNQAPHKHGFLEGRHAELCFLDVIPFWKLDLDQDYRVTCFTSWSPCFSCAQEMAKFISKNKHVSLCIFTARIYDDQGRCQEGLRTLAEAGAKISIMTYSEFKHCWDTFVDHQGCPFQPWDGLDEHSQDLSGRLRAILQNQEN
Sequence of DNA dC->dU-editing enzyme APOBEC-3A (P31941 whole entry): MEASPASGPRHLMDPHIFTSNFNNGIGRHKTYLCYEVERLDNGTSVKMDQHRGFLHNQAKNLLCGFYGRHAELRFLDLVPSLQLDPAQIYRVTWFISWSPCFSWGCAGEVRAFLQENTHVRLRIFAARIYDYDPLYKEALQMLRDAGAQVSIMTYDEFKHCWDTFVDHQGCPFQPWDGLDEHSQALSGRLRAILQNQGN
Sequence of G-protein coupled receptor 55 (Q9Y2T6 whole entry): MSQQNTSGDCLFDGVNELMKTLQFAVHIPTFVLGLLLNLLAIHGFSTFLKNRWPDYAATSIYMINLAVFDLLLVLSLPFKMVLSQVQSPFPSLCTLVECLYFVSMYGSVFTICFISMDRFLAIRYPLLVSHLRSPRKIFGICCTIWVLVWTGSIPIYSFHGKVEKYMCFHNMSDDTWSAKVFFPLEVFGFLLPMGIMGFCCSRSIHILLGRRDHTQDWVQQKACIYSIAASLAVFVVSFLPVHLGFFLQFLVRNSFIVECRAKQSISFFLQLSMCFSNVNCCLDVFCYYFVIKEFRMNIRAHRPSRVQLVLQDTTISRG
Sequence of Induced myeloid leukemia cell differentiation protein Mcl-1 (Q07820 whole entry): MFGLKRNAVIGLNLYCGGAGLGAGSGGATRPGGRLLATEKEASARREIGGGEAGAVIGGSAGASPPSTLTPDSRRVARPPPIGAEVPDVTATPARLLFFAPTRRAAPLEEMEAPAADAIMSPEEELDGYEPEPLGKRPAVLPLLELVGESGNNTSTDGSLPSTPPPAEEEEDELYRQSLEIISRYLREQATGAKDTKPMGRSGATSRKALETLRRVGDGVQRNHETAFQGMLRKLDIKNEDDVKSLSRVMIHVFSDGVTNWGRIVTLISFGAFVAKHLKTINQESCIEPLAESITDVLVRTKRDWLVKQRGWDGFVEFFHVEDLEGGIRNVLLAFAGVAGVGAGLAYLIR
Sequence of Voltage-dependent T-type calcium channel subunit alpha-1H (O95180 whole entry, the tested form may be a part): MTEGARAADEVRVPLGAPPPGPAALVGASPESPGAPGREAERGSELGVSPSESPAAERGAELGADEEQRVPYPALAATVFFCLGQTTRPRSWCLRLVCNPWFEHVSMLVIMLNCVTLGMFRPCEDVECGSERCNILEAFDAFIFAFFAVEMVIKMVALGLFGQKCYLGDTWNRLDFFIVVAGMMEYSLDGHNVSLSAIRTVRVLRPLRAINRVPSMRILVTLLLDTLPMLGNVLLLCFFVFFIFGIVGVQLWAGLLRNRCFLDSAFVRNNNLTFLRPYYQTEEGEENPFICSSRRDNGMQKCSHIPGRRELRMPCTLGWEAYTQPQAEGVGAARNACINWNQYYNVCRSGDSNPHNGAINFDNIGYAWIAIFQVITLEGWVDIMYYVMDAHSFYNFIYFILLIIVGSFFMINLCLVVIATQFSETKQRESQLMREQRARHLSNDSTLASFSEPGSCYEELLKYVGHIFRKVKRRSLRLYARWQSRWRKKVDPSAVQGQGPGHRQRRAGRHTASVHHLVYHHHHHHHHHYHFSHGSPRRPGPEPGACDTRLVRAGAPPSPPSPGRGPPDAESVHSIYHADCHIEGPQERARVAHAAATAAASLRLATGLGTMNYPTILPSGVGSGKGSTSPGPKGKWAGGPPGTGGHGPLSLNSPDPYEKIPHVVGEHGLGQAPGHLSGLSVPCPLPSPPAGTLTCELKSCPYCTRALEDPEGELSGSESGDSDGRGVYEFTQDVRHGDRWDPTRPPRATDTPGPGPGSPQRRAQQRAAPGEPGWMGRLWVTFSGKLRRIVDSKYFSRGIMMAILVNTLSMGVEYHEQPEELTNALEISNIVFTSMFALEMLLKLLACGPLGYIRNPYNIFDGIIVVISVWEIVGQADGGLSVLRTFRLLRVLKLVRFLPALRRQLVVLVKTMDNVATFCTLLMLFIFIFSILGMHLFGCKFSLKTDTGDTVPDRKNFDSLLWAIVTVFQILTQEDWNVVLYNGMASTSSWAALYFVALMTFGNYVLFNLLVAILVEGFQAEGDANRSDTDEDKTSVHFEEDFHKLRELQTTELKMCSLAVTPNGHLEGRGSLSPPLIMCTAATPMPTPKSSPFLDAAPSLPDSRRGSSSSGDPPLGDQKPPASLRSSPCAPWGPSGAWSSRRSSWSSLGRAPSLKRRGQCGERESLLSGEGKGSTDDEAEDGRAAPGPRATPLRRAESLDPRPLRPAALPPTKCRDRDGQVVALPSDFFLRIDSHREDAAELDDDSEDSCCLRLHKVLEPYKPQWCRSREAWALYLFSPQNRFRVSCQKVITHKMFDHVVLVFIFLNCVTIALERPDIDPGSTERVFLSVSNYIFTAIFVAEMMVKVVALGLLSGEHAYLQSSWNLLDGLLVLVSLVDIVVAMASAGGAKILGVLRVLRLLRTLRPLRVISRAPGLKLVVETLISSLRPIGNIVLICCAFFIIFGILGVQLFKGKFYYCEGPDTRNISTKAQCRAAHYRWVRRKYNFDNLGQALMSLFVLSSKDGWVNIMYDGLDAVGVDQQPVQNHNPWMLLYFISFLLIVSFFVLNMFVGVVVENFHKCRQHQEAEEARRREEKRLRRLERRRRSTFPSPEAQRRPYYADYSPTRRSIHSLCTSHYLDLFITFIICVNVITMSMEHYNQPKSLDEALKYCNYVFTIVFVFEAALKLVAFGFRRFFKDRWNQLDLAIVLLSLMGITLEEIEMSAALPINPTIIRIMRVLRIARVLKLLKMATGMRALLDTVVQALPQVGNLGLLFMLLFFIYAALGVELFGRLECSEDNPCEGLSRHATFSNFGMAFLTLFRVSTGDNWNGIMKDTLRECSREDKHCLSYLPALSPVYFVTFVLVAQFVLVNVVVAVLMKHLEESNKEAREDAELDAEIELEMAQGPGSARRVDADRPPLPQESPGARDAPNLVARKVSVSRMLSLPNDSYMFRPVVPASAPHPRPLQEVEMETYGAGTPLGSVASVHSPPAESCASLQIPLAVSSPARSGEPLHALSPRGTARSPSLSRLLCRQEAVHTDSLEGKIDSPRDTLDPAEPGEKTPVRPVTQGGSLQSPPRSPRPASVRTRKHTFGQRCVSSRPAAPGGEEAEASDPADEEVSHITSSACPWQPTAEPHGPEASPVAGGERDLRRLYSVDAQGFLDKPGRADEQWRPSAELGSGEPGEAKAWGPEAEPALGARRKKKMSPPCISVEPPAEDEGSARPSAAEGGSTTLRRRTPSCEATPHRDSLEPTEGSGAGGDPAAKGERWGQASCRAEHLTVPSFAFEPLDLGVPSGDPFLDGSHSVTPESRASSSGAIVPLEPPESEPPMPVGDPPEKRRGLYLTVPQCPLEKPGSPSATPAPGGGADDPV
T2 sequence (P65502 whole entry): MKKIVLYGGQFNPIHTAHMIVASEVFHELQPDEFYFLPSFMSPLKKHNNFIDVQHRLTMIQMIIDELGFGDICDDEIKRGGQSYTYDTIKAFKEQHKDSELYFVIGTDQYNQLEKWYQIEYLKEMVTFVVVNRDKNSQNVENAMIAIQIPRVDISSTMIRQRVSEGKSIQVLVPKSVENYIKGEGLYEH
Sequence of Genome polyprotein (P29990 2492-3391 limits assumed): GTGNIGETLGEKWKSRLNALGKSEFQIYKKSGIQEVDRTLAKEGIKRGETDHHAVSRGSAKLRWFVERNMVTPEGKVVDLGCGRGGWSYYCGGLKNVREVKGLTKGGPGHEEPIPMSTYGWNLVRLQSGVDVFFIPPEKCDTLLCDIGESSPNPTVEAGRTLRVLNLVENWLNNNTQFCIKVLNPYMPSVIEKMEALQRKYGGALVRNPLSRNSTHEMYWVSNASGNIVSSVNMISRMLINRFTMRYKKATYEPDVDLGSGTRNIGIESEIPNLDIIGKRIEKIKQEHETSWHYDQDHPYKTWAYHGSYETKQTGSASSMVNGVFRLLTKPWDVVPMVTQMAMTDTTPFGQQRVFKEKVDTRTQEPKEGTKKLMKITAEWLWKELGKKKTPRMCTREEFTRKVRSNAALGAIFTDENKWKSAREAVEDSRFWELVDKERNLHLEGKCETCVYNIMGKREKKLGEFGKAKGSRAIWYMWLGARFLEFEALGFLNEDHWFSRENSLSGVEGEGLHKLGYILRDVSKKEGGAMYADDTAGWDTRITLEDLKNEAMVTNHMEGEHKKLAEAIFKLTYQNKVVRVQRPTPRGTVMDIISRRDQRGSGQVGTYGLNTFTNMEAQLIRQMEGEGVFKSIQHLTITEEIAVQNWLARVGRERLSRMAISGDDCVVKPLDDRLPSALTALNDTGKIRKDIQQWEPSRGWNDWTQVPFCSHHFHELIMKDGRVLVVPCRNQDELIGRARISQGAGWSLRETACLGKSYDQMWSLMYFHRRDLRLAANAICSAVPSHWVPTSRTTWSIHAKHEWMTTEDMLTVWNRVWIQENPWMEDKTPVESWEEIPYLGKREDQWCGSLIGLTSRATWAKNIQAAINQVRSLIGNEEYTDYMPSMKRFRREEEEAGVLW

For `CCN(CC)C(=O)CSc1ncnc2c(-c3cccs3)nsc12`, the IC50 is 61.2 µM (active) in experiment [1]; 17.8 µM (active) in experiment [2]; 3.16 µM (active) in experiment [3]; 12.9 µM (active) in experiment [4]; 37.6 µM (active) in [5].
As for `CC(C)Oc1ccc(C(=O)Nc2ccc(N(C)C)cc2)cc1`, the IC50 at Large T antigen was 25.3 µM (active); in experiment [6] it was 4.48 µM (not active); in experiment [7], > 80 µM (inactive).
A word on the EC50: it is the concentration needed to bring the measured effect to its halfway point. In the case of `O=C(CSc1nnc(-c2cccs2)n1Cc1ccccc1)NCc1ccc2c(c1)OCO2`, the concentration giving a half-maximal response (EC50) in experiment [8] was 10.2 µM (active).
On to `COc1ccc(N2C(=O)NC(=O)/C(=C\c3c[nH]c4ccc(Br)cc34)C2=O)c(OC)c1`, for which the EC50 in experiment [9] and in [10] was > 300 µM (inconclusive) throughout. In [11], the IC50 was 1.66 µM (active).
With `COc1ccc(NC(=O)Cn2c(=O)oc3cc(S(=O)(=O)N4CCCC4)ccc32)c(OC)c1`, the EC50 in experiment [12] is > 50 µM (active).
In the case of `C=CCn1c(S)nnc1CSc1nc2ccccc2s1`, the IC50 in experiment [1] is > 100 µM (inactive); in experiment [2], 3.29 µM (active).
Regarding `Cc1ccc(C)c2nc(O)c(CN(Cc3cccnc3)C(S)=NCc3ccco3)cc12`, in experiment [12], the EC50 was > 50 µM (active).
With `CCOc1ccc(Br)cc1S(=O)(=O)Nc1ccccc1N1CCOCC1`, the EC50 in experiment [13] was > 40 µM (inactive).
`COc1ccc(S(=O)(=O)CC(=O)c2cc3cc(Br)ccc3oc2=O)cc1`: the IC50 in experiment [11] is 2.11 µM (active); at Genome polyprotein, > 100 µM (active).
In the case of `O=C(NCc1ccccc1)C(c1ccccc1)N(Cc1ccc2c(c1)OCO2)C(=O)Cc1cccs1` (stereo not given), the EC50 in experiment [8] is 5.37 µM (active).
A word on the AC50: it is the concentration at which the activity in the assay is half-maximal. Regarding `C=CCOc1c(OC)cc(/C=N/Nc2cccc(C(=O)O)c2)c(Br)c1Br`, the IC50 at Leucine aminopeptidase is < 1 µM (active); in experiment [11] it was 2.92 µM (active); in [6], 5.84 µM (not active); on Fatty acid synthase [14], 3.82 µM (active); at Fatty acid synthase [15], 3.06 µM (active). The AC50 at Caspase-6 was 19.2 µM (active).
Consider `CCN(CC)c1ccc(/C=N/N=C(c2ccccc2)c2ccccc2)c(O)c1`, for which the IC50 in experiment [7] is > 80 µM (inactive).
On to `Sc1nnc(COc2ccccc2)n1/N=C/c1cccnc1`, for which the IC50 is > 100 µM (inactive) in experiment [1] and 3.71 µM (active) in experiment [2].
As for `COc1cc(OC)c(/C=N/NC(N)=S)cc1Br`, the IC50 in experiment [7] was > 80 µM (inactive).
